This is an account of results in BindingDB's records for doi:10.1016/j.bmcl.2005.06.036 (Unit&#233, 2005).

Structures are written as SMILES.

The target in assay [1] is HIV-1 integrase (Human immunodeficiency virus 1). Kind of assay: In vitro inhibitory concentration against HIV-1 recombinant integrase activity in standard 3'-processing assay.
Assay [2] shares this target. As to the kind of experiment: In vitro inhibitory concentration against HIV-1 recombinant integrase activity in strand transfer assay.

For orientation: IC50 means the concentration needed to halve the response being measured. As to `O=C(c1ccc(O)cc1)c1ccc2ccc(/C=C/c3ccc(O)c(O)c3)nc2c1O` [{2-[(E)-2-(3,4-Dihydroxy-phenyl)-vinyl]-8-hydroxy-quinolin-7-yl}-(4-hydroxy-phenyl)-methanone], the 50% inhibitory concentration (IC50) in assay [1] and in assay [2] was above 100 µM each time.
